Data set [1] in a line: Incorporation of cytotoxic agent into LDL with submicellar NaDOC. The format is physicochemical. As for the experimental part: Les LDL isolées sur sépharose CL-4B sont dialysées pendant 24 heures à 4° C contre un tampon C.
L'agent thérapeutique est solubilisé dans un solvant organique à raison de 1 mg par ml. 100 µL de cette solution sont évaporés sous Argon dans un tube à essai. On ajoute au résidu sec, 2 ml de la solution de LDL et du NaDOC de façon à atteindre une concentration finale de 1 à 5 mM selon l'agent thérapeutique considéré. […]
Au terme de l'incubation, l'échantillon est filtré sur un filtre Millipore 0,45 µm. Le NaDOC est ensuite éliminé par chromatographie sur gel P6 (Biorard®) préalablement équilibré avec un tampon C.
La concentration en ApoB et en agent thérapeutique est déterminée sur chaque fraction.Les fractions correspondant aux LDL sont mises en commun et dialysées contre un tampon τrisHCl 10 mM NaCI 0,15 M EDTA 0,3 mM pH 7,4 pendant 24 heures à 4°C.
L'ensemble du procédé décrit en IV-1 a été appliqué à un dérivé VINCA ALCALOIDE liposoluble : le "C91 base": (4-désacétyl-vinblastine C-3N-dodécyl-carboxamide). La concentration en NaDOC utilisée lors de l'incubation a été ajustée à 2 mM final.
Si on précipite sélectivement les LDL, plus de 99 % du C91 base se retrouve dans le culot. On confirme ainsi que l'agent thérapeutique est bien associé aux LDL. On appellera cette préparation : LDL-C91. […]

Data set [2] in a line: Incorporation of antifungal agent into LDL by NaDoc dissociation-reconstitution. It counts as physicochemical. As to conditions: 1,6 mg LDL, 482 µg of agent, dialysis. As for the experimental part: On ajoute à 1,6 mg de LDL préalablement dialysées contre le tampon C, 10 mg de NaDoc solide et on laisse réagir 30 minutes à température ambiante. On ajoute à la préparation 2,8 ml d'une solution NaDoc 20 mM, Na2COs 50 mM, NaCi 50 mM, pH 10 contenant 482 µg de CT4000A ou 482 µg de CT040013. Les échantillons sont dialysés à 4° C contre trois fois 1 litre de tampon B.
Le pourcentage de récupération en LDL, en CT040013 et en NaDoc est déterminé au terme du processus de reconstitution (figure 13).
Il est également possible de rapporter la masse de substance incorporée par mole de LDL. Les résultats obtenus pour le CT04000A et la CT040013 sont respectivement de 0,4 et de 208 moles incorporés par mole de LDL.

Another data set concerns macrophages J77468. The data set can be described thus: Toxicity for J77468 macrophages (MTT reduction). It counts as cell-based, murine. Particulars: for % de viabilité cellulaire*: 18 h, MTT. How it is done: (§1) La lignée continue de macrophages J77468 d'origine murine provient d'un clonage de la souche J774 ATCC, et est cultivée en milieu RPMI 1640 additionné de glutamine 2 mM, 10% de sérum de veau foetal (décomplémenté 60 min. à 56°) et de 10 mM Hepes (pH 7.2). Une suspension de 5 10^6 cellules/ml sont infectées avec une culture de Candida tropicalis (5 10^5 levures/ml) provenant d'une culture de nuit dans de la casitone. Le milieu d'infection utilisé est du RPMI contenant 2 % de sérum de veau nouveau-né et 10 mM Hepes (pH 7.2).
La viabilité des macrophages J77468 cultivés dans du milieu contenant l'agent antifongique encapsulé ou non dans les LDL figure au Tableau 5. K et K01 sont toxiques aux concentrations nécessaires pour réduire de 50 % l'infection intracellulaire (C1250) contrairement au LDL-K01 pour lequel aucune toxicité n'a pu être détectée.
(In general: Tetrazolium assays rely on reduction of a dye to a coloured formazan, in cell work by metabolically active cells.)

A further data set deals with Candida tropicalis. The data set can be described thus: Intracellular infection model: J77468 macrophages infected with Candida tropicalis. As to conditions: 2 % de sérum de veau foetal. It counts as cell-based. As for the experimental part: as §1
(§2) Après 3 h d'incubation à 37° dans un mélange d'air 10 % C02, la phagocytose des levures est complète. La suspension cellulaire macrophages-Candida est centrifugée, lavée abondamment et répartie à raison de 10^5 macrophages infectés/alvéole dans des boîtes à 24 alvéoles contenant une lamelle de verre (diamètre 14 mm). Après 3 h de phagocytose (To), sur 100 macrophages, 32 contiennent de 1 à 6 Candida/macrophage, l'infection moyenne étant de 2 Candida/macrophage.
(§3) Toutes les levures ont été phagocytées sauf rares exceptions (estimation au microscope optique après coloration au May-Grünwald Giemsa). Douze concentrations différentes des drogues de référence et des drogues encapsulées dans les LDL sont distribuées dans les boîtes contenant les macrophages infectés.
(§4) L'évaluation de l'efficacité d'une drogue se fait à chaque concentration. Testées après 18 h d'incubation (37°, dans un mélange air-10 % C02), les levures se multiplient d'abord au sein des cellules hôtes, puis dans le milieu extracellulaire. Le taux de macrophages infectés est alors de 75 % chez les témoins. Une cellule peut contenir de 1 à plus de 20 Candida/cellule, la majorité contient de 2 à 6 levures/cellule. Le milieu de culture contient 10^8 Candida extracellulaires/ml (comptage dans une cellule de Burker).
L'activité d'une drogue encapsulée ou non dans les LDL ou Ac-LDL par rapport à un antifongique de référence, le kétoconazole (K), est déterminé par la concentration micromolaire en drogue réduisant de 50 % le nombre de macrophages infectés par les Candida (=C150). Signalons que parallèlement à la réduction au cours du traitement, du taux de cellules infectées, le nombre de Candida par macrophage infecté diminue fortement (de 1 à 3 levures/cellule).
Le milieu de culture est RPMI + glutamine 2 mM + Hepes 10 mM + 2 % de sérum de veau foetal.

Another data set has as its system C. tropicalis. The data set can be described thus: Extracellular infection in the infected-macrophage model. As to conditions: Candida tropicalis, read-out: CIext50^(a). The format is cell-based. As for the experimental part: as §1, §2, §3, §4
L'action des AF encapsulés sur une infection extracellulaire peut être évaluée de deux manières : d'une part en déterminant le nombre de Candida extracellulaires dans un modèle d'infection intracellulaire (voir VIII § 1.1.), d'autre part en mesurant la concentration minimale inhibitrice (CMI) de ces composés par la méthode de dilutions successives dans des boîtes à multipuits (milieu RPMI).

Where two headings read alike, the source gives them in different places. A value given as a limit tells only on which side of the number the result lay.

Turning to “4-désacétyl-vinblastine C-3N-dodécyl-carboxamide [C91 base]”, the “nombre de molécules de drogue incorporées par molécule de LDL” value in data set [1] (2 mM en NaDOC, temps d'incubation de 60 heures (3 heures à 25° C + 57 heures à 4°C)) came to 70. Further, the “part retrouvée dans le culot après précipitation sélective des LDL” value in data set [1] (NaDOC 2 mM) is given as > 99%.

As to `CC(=O)N1CCN(c2ccc(OC[C@H]3CO[C@](Cn4ccnc4)(c4ccc(Cl)cc4Cl)O3)cc2)CC1` [K, reference compound], the “moles incorporés par mole de LDL” value in data set [2] is 0,4 moles incorporés par mole de LDL. For the same compound, the “toxicité aux concentrations nécessaires pour réduire de 50 % l'infection intracellulaire” value in the data set with macrophages J77468 is recorded as “toxiques”. The “% de viabilité cellulaire*” value in the data set with macrophages J77468 (Concentration 0,78 µM) was 85,16%; in the data set on macrophages J77468 (Concentration 1,56 µM) it was 86,67%; with macrophages J77468 (Concentration 3,13 µM), 64,56%; with macrophages J77468 (Concentration 6,25 µM), 50,52%; with macrophages J77468 (Concentration 12,50 µM), 16,40%; in the data set with macrophages J77468 (Concentration 25,00 µM), 3,16%. In addition, the “% de viabilité cellulaire*” value in the data set with macrophages J77468 (Concentration 50,00 µM) is recorded as 3,50%; in the data set with macrophages J77468 (Concentration 100,00 µM, versus untreated control), 1,75%. The “CI50 K/AF” value in the data set on Candida tropicalis worked out at 1. The IC50 came to 52300 nM in the data set with Candida tropicalis (Candida tropicalis, Macrophage, micromolar concentration reducing infected macrophages by 50 %, 18 h, read-out: CI50 (the source's name)); 100 nM with C. tropicalis (addition de 2 % Pl.H. (plasma humain)); 100 nM with C. tropicalis (addition de 2 % SVF (sérum de veau foetal)).

The values above are taken from patent publication EP0277849A1, “Incorporation of one or more lipophilic, active principles into lipoproteins, lipoproteins obtained and pharmaceutical compositions containing them” (IRE-CELLTARG S.A., priority 1987, dated 1988).
